This note sets out measurements from US20110039762A1, “TARGETED ANTIMICROBIAL MOIETIES” (C3 JIAN, INC., priority 2009, published 2011).

Entries after “also recorded” stand apart in the source; their conditions may differ.

The test system of one experiment is microorganisms. The experiment is described as follows: Peptides having multiple activities (targeting/binding, antimicrobial, growth or phenotype altering). An excerpt:
In certain embodiments, peptides described herein can have multiple activities. Thus for example, a peptide can have both binding/targeting activity and antimicrobial activity. Such peptides can be used, e.g., in a chimeric construct, for any or all of these properties. Thus, for example, a peptide designated “B” in Table 8 can be used as a targeting peptide. If it is also designated G or M it can also be used for antimicrobial activity.

The test system of experiment [1] is microorganisms (e.g., bacteria, yeasts, fungi). The experiment is described as follows: Targeting peptide binding to target microorganisms (Table 3). The following applies: preferably 1x PBS; for Target(s) (microorganisms bound by the targeting peptide): peptide binding in aqueous buffers varied by peptide solubility.
For another experiment, the system named is P. aeruginosa. The experiment is described as follows: Kill or inhibit growth/proliferation; morphology, biofilm and growth disruption (Tables 5, 6). Also: test concentration or dose not given here. On the set-up: key: A: Peptide aggregates; B: Less hyphal formation; Clumps; Diffuse clumps and small polyps; F: Diffuse growth; H: Thin; I: Growth inhibition; Microcolony formation; Rippled; Small polyps; Thick; W: Halo formation on top, microlonies on bottom. Type of experiment: cell-based, Pseudomonas aeruginosa.

Another experiment relates to S. epidermidis. Described as above. Type of experiment: cell-based, Staphylococcus epidermidis. More on the design: key: A: Peptide aggregates; B: Less hyphal formation; Clumps; Diffuse clumps and small polyps; F: Diffuse growth; H: Thin; I: Growth inhibition; Microcolony formation; Rippled; Small polyps; Thick; W: Halo formation on top, microlonies on bottom.
For a further experiment, the system named is S. pneumoniae. The description is as above. Type of experiment: cell-based, Streptococcus pneumoniae. On the set-up: key: A: Peptide aggregates; B: Less hyphal formation; Clumps; Diffuse clumps and small polyps; F: Diffuse growth; H: Thin; I: Growth inhibition; Microcolony formation; Rippled; Small polyps; Thick; W: Halo formation on top, microlonies on bottom. Also: test concentration or dose not given here.

For another experiment, the system named is M. luteus. The description is as above. Type of experiment: cell-based, Micrococcus luteus. More on the design: key: A: Peptide aggregates; B: Less hyphal formation; Clumps; Diffuse clumps and small polyps; F: Diffuse growth; H: Thin; I: Growth inhibition; Microcolony formation; Rippled; Small polyps; Thick; W: Halo formation on top, microlonies on bottom.

Another experiment deals with S. mutans. The description is as above. Type of experiment: cell-based, Streptococcus mutans. On the set-up: key: A: Peptide aggregates; B: Less hyphal formation; Clumps; Diffuse clumps and small polyps; F: Diffuse growth; H: Thin; I: Growth inhibition; Microcolony formation; Rippled; Small polyps; Thick; W: Halo formation on top, microlonies on bottom.
The subject of the next experiment is MRSA. The experiment is described as above. More on the design: key: A: Peptide aggregates; B: Less hyphal formation; Clumps; Diffuse clumps and small polyps; F: Diffuse growth; H: Thin; I: Growth inhibition; Microcolony formation; Rippled; Small polyps; Thick; W: Halo formation on top, microlonies on bottom. Type of experiment: cell-based, Methicillin-resistant Staphylococcus aureus.

The test system of the next experiment is E. coli. The description is as above. Type of experiment: cell-based, Escherichia coli. On the set-up: key: A: Peptide aggregates; B: Less hyphal formation; Clumps; Diffuse clumps and small polyps; F: Diffuse growth; H: Thin; I: Growth inhibition; Microcolony formation; Rippled; Small polyps; Thick; W: Halo formation on top, microlonies on bottom. Also: test concentration or dose not given here.
A further experiment relates to E. faecalis. The description is as above. It is filed as cell-based, Enterococcus faecalis. More on the design: key: A: Peptide aggregates; B: Less hyphal formation; Clumps; Diffuse clumps and small polyps; F: Diffuse growth; H: Thin; I: Growth inhibition; Microcolony formation; Rippled; Small polyps; Thick; W: Halo formation on top, microlonies on bottom.
The subject of the next experiment is C. jejuni. Described as above. It is filed as cell-based, Campylobacter jejuni. More on the design: key: A: Peptide aggregates; B: Less hyphal formation; Clumps; Diffuse clumps and small polyps; F: Diffuse growth; H: Thin; I: Growth inhibition; Microcolony formation; Rippled; Small polyps; Thick; W: Halo formation on top, microlonies on bottom.
The mark [2] stands for this setting: microorganism(s) the targeting peptide binds, binding in aqueous buffers depending on peptide solubility.
[3] abbreviates: microorganism the targeting peptide binds, binding in aqueous buffers varied by peptide solubility.
For Organism, effect (morphology, biofilm and growth disruption) in this document: test concentration or dose not given here.
For Organism, effect in this document: test concentration or dose not given here.

As for “PF-128: peptide having multiple activities (GIKVVAARFEEIQFSENFDSIILA; Peptide with targeting and/or antimicrobial activity)”, the Activities entry with microorganisms is listed as “G B”. The “Target(s)” value in [1] (setting [2]) is “M. luteus; also recorded: P. aeruginosa; also recorded: E. faecalis”. In addition, the entries for the “Organism, effect” value in the experiment on P. aeruginosa and in the experiment with S. epidermidis were “P. aeruginosa (C)” and “S. epidermidis (D)”, respectively.

For “PF-535 (NIKTRKRALKIIKQHQRSK; Peptide with targeting and/or antimicrobial activity)”, the “Organism, effect” value in the experiment with S. pneumoniae is recorded as “S. pneumoniae (H)”; in the experiment with P. aeruginosa, “P. aeruginosa (H)”.

With “PF-051: peptide having multiple activities (chain 1 RFFNFEIKKSTKVDYVFAHVDLSDV; chain 2 RFFNFEIKKSTKVDYVFAHVDLSDV; Peptide with targeting and/or antimicrobial activity)”, the “Organism, effect” value in the experiment on M. luteus was “M. luteus (C)”; in the experiment with S. mutans, “S. mutans (D)”; with S. pneumoniae it was “S. pneumoniae (D)”; with S. epidermidis, “S. epidermidis (D)”; in the experiment on MRSA, “MRSA (D)”. The Activities entry in the experiment on microorganisms was “G B”. For the same substance, the “Target(s)” value in [1] (setting [3]) was “S. epidermidis and M. luteus and P. aeruginosa and C. albicans and MRSA and S. pneumoniae and E. faecalis”.

In the case of “PF-020: peptide having multiple activities (chain 1 MKIILLLFLIFGFIVVVTLKSEHQLTLFSI; chain 2 MKIILLLFLIFGFIVVVTLKSEHQLTLFSI; Peptide with targeting and/or antimicrobial activity)”, the “Organism, effect” value is “M. luteus (C)” in the experiment on M. luteus; “S. mutans (F)” in the experiment with S. mutans; “S. pneumoniae (D)” with S. pneumoniae; “S. epidermidis (C)” in the experiment with S. epidermidis; “MRSA (C)” in the experiment on MRSA. Moreover, in the experiment with microorganisms, the Activities result is reported as “G B”. In addition, in experiment [1] (setting [3]), the “Target(s)” value is “S. epidermidis and M. luteus and C. albicans and MRSA and S. pneumoniae and E. faecalis”.

In the case of “PF-458: peptide having multiple activities (chain 1 ISLIIFIMLFVVALFKCITNYKHQS; chain 2 ISLIIFIMLFVVALFKCITNYKHQS; Peptide with targeting and/or antimicrobial activity)”, the Activities result with microorganisms is “G B”. The “Organism, effect” value was “S. pneumoniae (M)” in the experiment on S. pneumoniae, “P. aeruginosa (H)” with P. aeruginosa and “MRSA (M)” in the experiment with MRSA.

For the substance “PF-411: peptide having multiple activities (WVAVAILLNIALQTQLT; Peptide with targeting and/or antimicrobial activity)”, the Activities result in the experiment with microorganisms is “G B”. In addition, the “Organism, effect” value with E. coli was “E. coli (C)”; in the experiment on S. pneumoniae, “S. pneumoniae (D)”; in the experiment on P. aeruginosa, “P. aeruginosa (A)”; in the experiment on S. epidermidis it was “S. epidermidis (C)”; in the experiment with MRSA, “MRSA (D)”; with E. faecalis, “E. faecalis (D)”. In the experiment with C. jejuni, the “Organism, effect” value is on record as “C. jejuni (D)”.

Consider “PF-776: peptide having multiple activities (VSILLYLSATIILPNVLRLLVARAIIVRV; Peptide with targeting and/or antimicrobial activity)”, for which the “Organism, effect (morphology, biofilm and growth disruption)” value with M. luteus is given as “M. luteus (C)”; with S. mutans, “S. mutans (D)”; with E. coli, “E. coli (C)”; with S. pneumoniae, “S. pneumoniae (C)”; with S. epidermidis it was “S. epidermidis (D)”; with MRSA, “MRSA (D)”. The Activities result with microorganisms was “G B”. Besides, in experiment [1], the “Target(s) (microorganisms bound by the targeting peptide)” value is “S. epidermidis and M. luteus and P. mirabilis and C. albicans and MRSA and S. pneumoniae and E. faecalis”.

As to LSPRPIIVSRRSRADNNNDWSR [PF-143], in the experiment on microorganisms, the Activities result was “G B”. Moreover, in [1] (setting [2]), the “Target(s)” value was “S. epidermidis and MRSA and C. jeikeium”. Further, in the experiment with P. aeruginosa, the “Organism, effect” value is given as “P. aeruginosa (C)”.

As for “PF-454: peptide having multiple activities (chain 1 MSVFVPVTNIFMFIMSPIFNVNLLHFKVYI; chain 2 MSVFVPVTNIFMFIMSPIFNVNLLHFKVYI; Peptide with targeting and/or antimicrobial activity)”, the Activities entry in the experiment with microorganisms is “G B”. For the same substance, the “Organism, effect” value in the experiment with E. coli was “E. coli (R)”; with S. pneumoniae it was “S. pneumoniae (R)”; in the experiment on P. aeruginosa, “P. aeruginosa (H)”; with S. epidermidis it was “S. epidermidis (C)”; in the experiment on MRSA, “MRSA (C)”; with E. faecalis, “E. faecalis (C)”.

Consider KKFKIFVIINWFYHKYIILNFEENF [PF-C085], for which the Activities entry with microorganisms is listed as “G B”. In addition, in the experiment on S. mutans, the “Organism, effect (morphology, biofilm and growth disruption)” value is given as “S. mutans (F)”. Besides, the “Target(s) (microorganisms bound by the targeting peptide)” value in experiment [1] is “A. naeslundii; also recorded: F. nucleatum; also recorded: P. gingivalis; also recorded: S. mutans; also recorded: T. denticola”.

Consider “PF-543: peptide having multiple activities (chain 1 NILFGIIGFVVAMTAAVIVTAISIAK; chain 2 NILFGIIGFVVAMTAAVIVTAISIAK; Peptide with targeting and/or antimicrobial activity)”, for which the “Organism, effect” value was “M. luteus (C)” in the experiment on M. luteus; “S. mutans (S)” in the experiment on S. mutans; “E. coli (C)” in the experiment with E. coli; “S. pneumoniae (D)” with S. pneumoniae; “S. epidermidis (D)” in the experiment on S. epidermidis; “MRSA (D)” in the experiment on MRSA. Further, the Activities result with microorganisms was “G B”.

With “GNVHPESDFHNLIQFIKTFLYFTIFFKYFL [PF-C290]”, the Activities entry in the experiment on microorganisms was “G B”. The “Organism, effect (morphology, biofilm and growth disruption)” value in the experiment on S. mutans is recorded as “S. mutans (F)”. Besides, the “Target(s) (microorganisms bound by the targeting peptide)” value in experiment [1] is “A. naeslundii; also recorded: F. nucleatum; also recorded: P. gingivalis; also recorded: S. mutans; also recorded: T. denticola”.

With “PF-C139: peptide having multiple activities (LLASHPERLSLGVFFVYRVLHLLLENT; Peptide with targeting and/or antimicrobial activity)”, the Activities result in the experiment with microorganisms is recorded as “G B”. For the same substance, the “Organism, effect (morphology, biofilm and growth disruption)” value in the experiment on S. mutans is “S. mutans (F)”. Further, the “Target(s) (microorganisms bound by the targeting peptide)” value in [1] was “A. naeslundii; also recorded: F. nucleatum; also recorded: P. gingivalis; also recorded: S. mutans; also recorded: T. denticola”.

As for “PF-356: peptide having multiple activities (chain 1 VSIKIGAIVIGMIGLMELLTE; chain 2 VSIKIGAIVIGMIGLMELLTE; Peptide with targeting and/or antimicrobial activity)”, the Activities entry with microorganisms was “G B”. Moreover, the “Organism, effect” value with S. pneumoniae was “S. pneumoniae (R)”; with P. aeruginosa, “P. aeruginosa (A)”; in the experiment with S. epidermidis it was “S. epidermidis (S)”; with MRSA, “MRSA (C)”; with E. faecalis, “E. faecalis (R)”; in the experiment with C. jejuni, “C. jejuni (D)”.

For the substance “PF-536 (MEPIPHIMIIANQIGIIIEKA; Peptide with targeting and/or antimicrobial activity)”, the “Organism, effect” value with E. coli is listed as “E. coli (R)”; in the experiment with S. pneumoniae it was “S. pneumoniae (M)”; in the experiment with P. aeruginosa, “P. aeruginosa (H)”; with S. epidermidis, “S. epidermidis (C)”; in the experiment with MRSA it was “MRSA (C)”; in the experiment on E. faecalis, “E. faecalis (C)”.
